In ChEMBL document CHEMBL4680099, “Discovery of Leucyladenylate Sulfamates as Novel Leucyl-tRNA Synthetase (LRS)-Targeted Mammalian Target of Rapamycin Complex 1 (mTORC1) Inhibitors” (J Med Chem, 2016):
Calls of active or inactive are those of the source. The rule behind the calls is not given here.

Experiments:
[1] = molecular target: T1, Leucine--tRNA ligase, cytoplasmic (Homo sapiens, UniProt Q9P2J5); assay: Inhibition of catalytic activity of LRS (unknown origin) by aminoleucylation assay
Target sequence in this assay (Q9P2J5 whole entry): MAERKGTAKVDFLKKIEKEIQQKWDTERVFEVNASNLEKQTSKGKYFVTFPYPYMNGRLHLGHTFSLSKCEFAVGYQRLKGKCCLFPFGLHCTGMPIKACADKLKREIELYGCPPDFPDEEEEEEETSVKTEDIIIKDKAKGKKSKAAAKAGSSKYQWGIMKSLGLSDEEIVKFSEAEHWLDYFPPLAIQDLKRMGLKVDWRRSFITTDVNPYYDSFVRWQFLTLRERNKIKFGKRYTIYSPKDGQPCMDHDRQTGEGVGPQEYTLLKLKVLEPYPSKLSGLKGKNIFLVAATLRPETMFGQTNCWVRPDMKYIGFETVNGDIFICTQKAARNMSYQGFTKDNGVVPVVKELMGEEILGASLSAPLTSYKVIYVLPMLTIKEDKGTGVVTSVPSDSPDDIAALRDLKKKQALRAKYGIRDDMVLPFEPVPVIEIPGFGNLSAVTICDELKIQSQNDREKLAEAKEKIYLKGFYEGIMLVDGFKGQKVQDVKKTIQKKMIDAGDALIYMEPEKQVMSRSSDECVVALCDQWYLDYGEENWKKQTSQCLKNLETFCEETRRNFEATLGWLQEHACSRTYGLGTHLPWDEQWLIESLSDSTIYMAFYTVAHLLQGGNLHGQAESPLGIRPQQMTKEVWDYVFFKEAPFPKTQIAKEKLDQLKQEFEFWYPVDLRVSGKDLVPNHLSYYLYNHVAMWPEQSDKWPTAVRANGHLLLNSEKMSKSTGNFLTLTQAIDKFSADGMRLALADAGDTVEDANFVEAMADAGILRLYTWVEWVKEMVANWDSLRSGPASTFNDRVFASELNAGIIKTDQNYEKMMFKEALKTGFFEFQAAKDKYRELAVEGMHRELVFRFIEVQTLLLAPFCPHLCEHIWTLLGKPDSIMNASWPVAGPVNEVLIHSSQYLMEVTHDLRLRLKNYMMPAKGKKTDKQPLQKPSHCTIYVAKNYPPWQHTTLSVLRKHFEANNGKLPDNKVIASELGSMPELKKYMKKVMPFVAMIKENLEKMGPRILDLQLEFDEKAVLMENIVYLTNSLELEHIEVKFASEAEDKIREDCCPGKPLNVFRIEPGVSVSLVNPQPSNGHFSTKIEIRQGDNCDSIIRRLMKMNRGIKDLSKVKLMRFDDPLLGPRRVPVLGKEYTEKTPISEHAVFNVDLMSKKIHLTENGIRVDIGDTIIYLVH

[2] = molecular target: T1, Leucine--tRNA ligase, cytoplasmic; assay: Inhibition of catalytic activity of LRS in HEK293 cells assessed as reduction in mTORC1 activation by measuring leucine-induced S6K phosphorylation at 12.5 to 200 uM by immunoblotting analysis; format: cell-based; conditions: dose 12.5-200 µM
Target sequence in this assay (Q9P2J5 whole entry, looked up): as the sequence (Q9P2J5 whole entry) above

A549 = assay: Cytotoxicity in human A549 cells by sulforhodamine B colorimetric assay; format: functional, cell-based
HCT-116 = assay: Cytotoxicity in human HCT-116 cells by sulforhodamine B colorimetric assay; format: functional, cell-based
K562 = assay: Cytotoxicity in human K562 cells by sulforhodamine B colorimetric assay; format: functional, cell-based
MDA-MB-231 = assay: Cytotoxicity in human MDA-MB-231 cells by sulforhodamine B colorimetric assay; format: functional, cell-based
SK-HEP1 = assay: Cytotoxicity in human SK-HEP1 cells by sulforhodamine B colorimetric assay; format: functional, cell-based
SNU-638 = assay: Cytotoxicity in human SNU-638 cells by sulforhodamine B colorimetric assay; format: functional, cell-based
MRC5 = assay: Cytotoxicity in human MRC5 cells by sulforhodamine B colorimetric assay; format: cell-based
mTORC1 (Homo sapiens) [3] = molecular target: T2, mTORC1 (Homo sapiens) (UniProt P42345+Q8N122+Q9BVC4); assay: Inhibition of flag-tagged mTORC1 (unknown origin) at 200 uM; format: protein-complex assay
mTORC1 (Homo sapiens) [4] = molecular target: T2, mTORC1 (Homo sapiens); conditions: HEK293, dose 100.0 nM
Description: Inhibition of mTORC1 activation in HEK293 cells assessed as reduction leucine-induced S6K phosphorylation at 100 nM by immunoblotting analysis

T2 sequence (Q8N122 whole entry, looked up, other chains not shown): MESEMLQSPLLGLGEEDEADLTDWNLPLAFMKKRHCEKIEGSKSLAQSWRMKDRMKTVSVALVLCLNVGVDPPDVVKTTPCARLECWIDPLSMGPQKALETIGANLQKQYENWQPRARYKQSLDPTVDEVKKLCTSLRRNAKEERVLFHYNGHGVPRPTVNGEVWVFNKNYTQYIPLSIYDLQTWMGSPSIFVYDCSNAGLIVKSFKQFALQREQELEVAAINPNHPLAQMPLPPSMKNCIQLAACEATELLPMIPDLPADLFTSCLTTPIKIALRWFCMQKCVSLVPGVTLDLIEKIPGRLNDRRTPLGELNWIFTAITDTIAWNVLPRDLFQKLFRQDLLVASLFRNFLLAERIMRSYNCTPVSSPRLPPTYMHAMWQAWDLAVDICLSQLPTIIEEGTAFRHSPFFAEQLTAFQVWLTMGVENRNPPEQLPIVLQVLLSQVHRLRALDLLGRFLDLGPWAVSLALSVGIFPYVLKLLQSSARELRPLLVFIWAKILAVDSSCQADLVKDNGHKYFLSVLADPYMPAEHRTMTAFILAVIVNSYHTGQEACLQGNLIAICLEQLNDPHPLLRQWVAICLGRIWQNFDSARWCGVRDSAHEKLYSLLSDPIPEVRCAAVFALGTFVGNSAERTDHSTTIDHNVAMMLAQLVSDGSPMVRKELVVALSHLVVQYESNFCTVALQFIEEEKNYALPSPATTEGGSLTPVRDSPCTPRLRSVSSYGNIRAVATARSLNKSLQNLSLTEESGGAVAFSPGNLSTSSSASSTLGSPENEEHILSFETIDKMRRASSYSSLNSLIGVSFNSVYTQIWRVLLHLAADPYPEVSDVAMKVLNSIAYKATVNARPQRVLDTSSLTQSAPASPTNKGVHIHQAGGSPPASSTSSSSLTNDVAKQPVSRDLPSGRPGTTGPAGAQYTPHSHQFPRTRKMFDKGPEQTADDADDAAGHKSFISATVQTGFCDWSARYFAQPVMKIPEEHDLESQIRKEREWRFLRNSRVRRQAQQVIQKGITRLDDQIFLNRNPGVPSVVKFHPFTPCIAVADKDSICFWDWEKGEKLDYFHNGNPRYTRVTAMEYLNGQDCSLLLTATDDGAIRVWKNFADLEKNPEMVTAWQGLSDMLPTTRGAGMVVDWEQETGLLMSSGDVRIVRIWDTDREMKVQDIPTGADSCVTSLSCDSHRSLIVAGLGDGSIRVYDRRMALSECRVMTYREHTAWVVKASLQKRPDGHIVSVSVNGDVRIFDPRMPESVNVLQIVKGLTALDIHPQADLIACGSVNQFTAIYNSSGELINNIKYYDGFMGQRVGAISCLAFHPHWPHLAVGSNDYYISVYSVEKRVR
T2 sequence (Q9BVC4 whole entry, looked up, other chains not shown): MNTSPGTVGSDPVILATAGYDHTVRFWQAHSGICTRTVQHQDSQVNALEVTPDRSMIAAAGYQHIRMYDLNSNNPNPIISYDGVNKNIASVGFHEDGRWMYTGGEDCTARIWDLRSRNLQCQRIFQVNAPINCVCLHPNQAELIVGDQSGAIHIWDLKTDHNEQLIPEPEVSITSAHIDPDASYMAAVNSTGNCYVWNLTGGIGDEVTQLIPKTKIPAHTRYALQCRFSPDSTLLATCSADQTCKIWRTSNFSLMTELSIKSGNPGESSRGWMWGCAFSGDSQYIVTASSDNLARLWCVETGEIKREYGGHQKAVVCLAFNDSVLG

IC50 [1]	inhibition [2]	inhibition (mTORC1 (Homo sapiens) [3])	inhibition (mTORC1 (Homo sapiens) [4])	Structure (SMILES)	IC50 (A549)	IC50 (HCT-116)	IC50 (K562)	IC50 (MDA-MB-231)	IC50 (SK-HEP1)	IC50 (SNU-638)	IC50 (MRC5)
22.3 nM	inactive	–	–	CC(C)C[C@H](N)C(=O)NS(=O)(=O)OC[C@H]1O[C@@H](n2cnc3c(N)ncnc32)[C@H](O)[C@@H]1O [LEUSA]	590 nM	240 nM	400 nM	0.73 µM	0.54 µM	0.84 µM	5.9 µM
–	–	–	–	COc1cc([C@@H]2c3cc4c(cc3[C@@H](O[C@@H]3O[C@@H]5CO[C@@H](C)O[C@H]5[C@H](O)[C@H]3O)[C@H]3COC(=O)[C@H]23)OCO4)cc(OC)c1O [ETOPOSIDE]	240 nM	1250 nM	1790 nM	7.35 µM	0.25 µM	0.56 µM	–
70 nM	Dose-dependent effect	inactive	–	CC(C)[C@@H](O)[C@H](O)C(=O)NS(=O)(=O)OC[C@H]1O[C@@H](n2cnc3c(N)ncnc32)[C@H](O)[C@@H]1O	1640 nM	1440 nM	2220 nM	7.01 µM	6.81 µM	8.98 µM	> 50 µM
–	–	–	Active	CO[C@H]1C[C@@H]2CC[C@@H](C)[C@@](O)(O2)C(=O)C(=O)N2CCCC[C@H]2C(=O)O[C@H]([C@H](C)C[C@@H]2CC[C@@H](O)[C@H](OC)C2)CC(=O)[C@H](C)/C=C(\C)[C@@H](O)[C@@H](OC)C(=O)[C@H](C)C[C@H](C)/C=C/C=C/C=C/1C	–	–	–	–	–	–	–
337 nM	Dose-dependent effect	inactive	–	CC(C)C[C@H](O)C(=O)NS(=O)(=O)OC[C@H]1O[C@@H](n2cnc3c(N)nc(I)nc32)[C@H](O)[C@@H]1O	1750 nM	540 nM	1060 nM	12.6 µM	5.63 µM	5.7 µM	> 50 µM
